The values that follow come from article PMC4145624, “Simultaneous purification of nitrile hydratase and amidase of Alcaligenes sp. MTCC 10674” (3 Biotech, 2013).

The test system of assay [1] is T1, Nitrile hydratase (Nhase).
T1 construct: gene nthA; native, purified from Alcaligenes sp; MTCC 10674 cells (DEAE-Sepharose); heterodimer of 24 and 21 kDa, 47 kDa by native PAGE
In words: acrylamide formation at […] nm. Particulars: sodium phosphate buffer 0.125 M, pH 8.0, 15 °C (standard assay). It is filed as biochemical, Alcaligenes sp. MTCC 10674.

Another assay deals with T2, Amidase.
T2 construct: native, purified from Alcaligenes sp; MTCC 10674 cells (DEAE-Sepharose, Sephacryl S-100); dimer of 52 and 49 kDa, 114 kDa by native PAGE
Put plainly: ammonia release assay. Type of assay: biochemical, Alcaligenes sp. MTCC 10674. Particulars: sodium phosphate buffer 0.075 M, pH 8.0, 45 °C (standard assay); substrate named, not in the Km sentence.

One may read the Km as the substrate concentration at which the rate is half of its maximum.

`C=CC#N` [acrylonitrile]: in assay [1], the Km came out at 40 mM.

With `CCC(N)=O` [propionamide], in the assay on Amidase, the Km came to 45.5 mM.
